Results reported in publication PMC6769468, “Endogenous Neuropeptide Nocistatin Is a Direct Agonist of Acid-Sensing Ion Channels (ASIC1, ASIC2 and ASIC3)” (Biomolecules, 2019).
Ends that are not written are not given here.

Legend:
rat ASIC3 = target: T1, rat ASIC3 (Rattus norvegicus, UniProt O35240); assay: Whole-cell current activation, rat ASIC3 in X. laevis oocytes; assay type: cell-based
T1 construct: expressed in transfected cells; host or cells: Xenopus laevis oocytes (injected)
T1 sequence (O35240 1-533): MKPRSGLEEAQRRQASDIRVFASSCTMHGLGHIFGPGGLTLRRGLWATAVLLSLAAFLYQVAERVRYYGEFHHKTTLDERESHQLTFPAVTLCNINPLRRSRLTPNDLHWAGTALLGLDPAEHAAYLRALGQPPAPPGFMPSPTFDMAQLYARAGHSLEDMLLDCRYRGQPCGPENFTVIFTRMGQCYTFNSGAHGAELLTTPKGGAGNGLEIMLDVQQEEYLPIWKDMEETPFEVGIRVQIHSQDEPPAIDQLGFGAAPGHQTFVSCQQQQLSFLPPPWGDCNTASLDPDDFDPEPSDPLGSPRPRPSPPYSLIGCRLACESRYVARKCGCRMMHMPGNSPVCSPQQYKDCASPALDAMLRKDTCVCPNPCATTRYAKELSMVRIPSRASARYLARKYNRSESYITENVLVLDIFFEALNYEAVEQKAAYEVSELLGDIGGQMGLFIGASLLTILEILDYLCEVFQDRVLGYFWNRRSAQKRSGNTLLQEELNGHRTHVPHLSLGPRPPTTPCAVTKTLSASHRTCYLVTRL
Method: Oocytes expressed rASIC1a, rASIC1b, rASIC2a, and rASIC3 homomeric channels were prepared as described. Injected oocytes were kept for two–three days at 19 °C and then for up to seven days at 15 °C in ND-96 medium supplemented with gentamycin (50 μg·mL^−1) and containing (in mM): 96 NaCl, 2 KCl, 1.8 CaCl2, 1 MgCl2, and 10 HEPES titrated to pH 7.4 with NaOH. Electrophysiological recordings were performed using the GeneClamp500 amplifier (Axon Instruments, Inverurie, UK) at a holding potential of -50 mV. The data were filtered at 20 Hz and digitized at 100 Hz using the L780 AD converter (L-Card, Moscow, Russia). Microelectrodes were filled with 3 M KCl. The external bath solution was ND-96 with pH adjusted to 7.4/7.8 (10 mM HEPES) /8.5 (10 mM Tris). Nocistatin containing solutions were freshly prepared and buffered each experimental day in ND-96 bath solution (pH 7.4/7.8/8.5). Proton-activated currents through ASIC channels were elicited by application of ND-96, in which 10 mM of HEPES was substituted with 10 mM MES at pH 5.5/ 10 mM acetic acid at pH 4.5. […]
All data are presented as mean ± SEM. The significance of normalized data differences was determined with a non-parametric Kruskal-Wallis ANOVA test with the significance level * p < 0.05 and ** p < 0.01; ns, non-significant.

homomeric ASICs = assay: Whole-cell current, homomeric ASICs in oocytes (all isoforms together); assay type: cell-based, rat
Method: Oocytes expressed rASIC1a, rASIC1b, rASIC2a, and rASIC3 homomeric channels were prepared as described. Injected oocytes were kept for two–three days at 19 °C and then for up to seven days at 15 °C in ND-96 medium supplemented with gentamycin (50 μg·mL^−1) and containing (in mM): 96 NaCl, 2 KCl, 1.8 CaCl2, 1 MgCl2, and 10 HEPES titrated to pH 7.4 with NaOH. Electrophysiological recordings were performed using the GeneClamp500 amplifier (Axon Instruments, Inverurie, UK) at a holding potential of -50 mV. The data were filtered at 20 Hz and digitized at 100 Hz using the L780 AD converter (L-Card, Moscow, Russia). Microelectrodes were filled with 3 M KCl. The external bath solution was ND-96 with pH adjusted to 7.4/7.8 (10 mM HEPES) /8.5 (10 mM Tris). Nocistatin containing solutions were freshly prepared and buffered each experimental day in ND-96 bath solution (pH 7.4/7.8/8.5). Proton-activated currents through ASIC channels were elicited by application of ND-96, in which 10 mM of HEPES was substituted with 10 mM MES at pH 5.5/ 10 mM acetic acid at pH 4.5. The whole-cell recording was performed if a response to the control pH stimulus was stable in at least two replicates. Nocistatin-activated currents were elicited by application of nocistatin containing solutions with various concentrations of the peptide.
Extracellular solutions were applied using a computer-controlled valve system with a flow rate of 1 mL/min. The oocyte chamber volume was 80 µL. The validity of the application system for studying ASIC channels expressed in oocytes was confirmed in experiments by application of a Cl-free solution (containing (in mM): 130 NMDG, 1 MgGluc2, 2 KGluc, 5 HEPES) (pH 7.4). Fast application of proton/peptide-activating solution was performed at a flow rate of 1 mL/sec (the change of the bath solution occurred within 100 ms), followed by PC controlled flow stopping (from 5 to 15 s).

MPRVRSVVQARDAEPEADAEPVADEADEVEQKQLQ [rNS]
tmax greater than for protons by (rat ASIC3; 1 mM rNS vs pH drop 7.4–5.5, slower activation): ~ 49% | τdes (desensitization time constant) (rat ASIC3; 1 mM rNS, conditioning pH 7.4, mean ± S.E. from 4–7 measurements): 0.4 ± 0.1 s | Response to a pH drop after washing out the peptide (homomeric ASICs; after washout): completely restored after washing out the peptide | Response to rapid acidification after activation by the peptide (homomeric ASICs; pH drop after 1 mM rNS): did not respond further to rapid acidification after activation by the peptide | Effect of application at resting pH 7.4 (homomeric ASICs; resting pH 7.4, 1 mM rNS): causes rapidly activating inward currents in homomeric ASICs
